Experimental data published in patent publication US20140080869A1, “Methods for Treating HCV” (priority 2012, published 2014).
Read-outs that look alike come from different tables or passages of the source.

Experiments:
[1] = system: HCV replicon with NS5A genotype 3a M28T variant; assay: Transient chimeric replicon assay, genotype 3a M28T; type: cell-based
From the text: (§1) Transiently replicating chimeric replicons containing NS5A from genotype 2-6 wild types or replicons containing variants within NS5A were constructed in the 1b-Con1 background. These replicons also contained a firefly luciferase reporter gene. Variants were introduced by site-directed mutagenesis using the Change-IT Multiple Mutation Site Directed Mutagenesis Kit (USB). After the mutagenesis was confirmed by sequence analysis, the plasmids were linearized with ScaI restriction enzyme. The TranscriptAid T7 High Yield Transcription Kit (Fermentas) was used to transcribe the HCV subgenomic RNA from the plasmids. The RNA was transfected via electroporation into a Huh-7 derived cell line as described (see Middleton et al. and Tripathi et al., supra) except that 3×10^6 cells were electroporated with 15 μg of template RNA and the 96 well plate was seeded with 7.5×10^3 cells per well. Four hours post-transfection, the wells from one plate were harvested for luciferase measurement. […] Luciferin solution (50 μl, Promega) was added to each well, and luciferase activity was measured with a Victor II luminometer (Perkin-Elmer). The percent inhibition of HCV RNA replication was calculated for each compound concentration and the EC50 value was calculated using nonlinear regression curve fitting to the 4-parameter logistic equation and GraphPad Prism 4 software.

[2] = system: HCV replicon with NS5A from genotype 3a; assay: microbe, parasite or virus in culture; details: Hepatitis C virus, read-out: Mean EC50 ± Std. Dev.
[3] = system: HCV replicon with NS5A from genotype 2b; assay: microbe, parasite or virus in culture; details: Hepatitis C virus, read-out: Mean EC50 ± Std. Dev.
[4] = system: HCV replicon with NS5A genotype 2b wild type; assay: Transient chimeric replicon assay, genotype 2b WT; type: cell-based; details: Hepatitis C virus
From the text: as §1

[5] = system: HCV replicon with NS5A genotype 5a L31V variant; assay: Transient chimeric replicon assay, genotype 5a L31V; type: cell-based; details: Hepatitis C virus
From the text: as §1

[6] = system: HCV replicon with NS5A genotype 2a T24A variant; assay: Transient chimeric replicon assay, genotype 2a T24A; type: cell-based
From the text: as §1

[7] = system: HCV genotype 1b-Con1 stable subgenomic replicon; details: read-out: Mean EC50 ± Std. Dev.
[8] = system: HCV replicon with NS5A from genotype 6a; assay: microbe, parasite or virus in culture; details: Hepatitis C virus, read-out: Mean EC50 ± Std. Dev.
[9] = system: HCV replicon with NS5A genotype 6a T58A variant; assay: Transient chimeric replicon assay, genotype 6a T58A; type: cell-based
From the text: as §1

[10] = system: HCV replicon with NS5A from genotype 2b; details: read-out: Mean EC50 ± Std. Dev.
[11] = system: HCV replicon with NS5A genotype 2b L31V variant; assay: Transient chimeric replicon assay, genotype 2b L31V; type: cell-based
From the text: as §1

[12] = system: HCV replicon with NS5A genotype 5a wild type; assay: Transient chimeric replicon assay, genotype 5a WT; type: cell-based; details: Hepatitis C virus
From the text: as §1

[13] = system: HCV replicon with NS5A genotype 6a wild type; assay: microbe, parasite or virus in culture; type: cell-based; details: Hepatitis C virus, read-out: Average EC50
From the text: (§2) Transiently replicating chimeric replicons containing NS5A from genotype 2-6 wild types or replicons containing variants within NS5A were constructed in the 1b-Con1 background. These replicons also contained a firefly luciferase reporter gene. Variants were introduced by site-directed mutagenesis using the Change-IT Multiple Mutation Site Directed Mutagenesis Kit (USB). After the mutagenesis was confirmed by sequence analysis, the plasmids were linearized with ScaI restriction enzyme. The TranscriptAid T7 High Yield Transcription Kit (Fermentas) was used to transcribe the HCV subgenomic RNA from the plasmids. The RNA was transfected via electroporation into a Huh-7 derived cell line as described (see Middleton et al. and Tripathi et al., supra) except that 3×10^6 cells were electroporated with 15 μg of template RNA and the 96 well plate was seeded with 7.5×10^3 cells per well. Four hours post-transfection, the wells from one plate were harvested for luciferase measurement. This plate provided a measure of the amount of translatable input RNA, and therefore transfection efficiency. To the wells of the remaining plates, a half-log dilution series of the test compound in culture medium (0.5% DMSO final concentration) was added, and plates were incubated at 37° C., 5% CO2 in a humidified incubator for 4 days. After this period, the media was removed and the plates were washed with 100 μl phosphate-buffered saline per well. Luciferin solution (50 μl, Promega) was added to each well, and luciferase activity was measured with a Victor II luminometer (Perkin-Elmer). The percent inhibition of HCV RNA replication was calculated for each compound concentration and the EC50 value was calculated using nonlinear regression curve fitting to the 4-parameter logistic equation and GraphPad Prism 4 software.

[14] = system: HCV replicon with NS5A genotype 2a wild type; assay: microbe, parasite or virus in culture; type: cell-based; details: Hepatitis C virus, read-out: Average EC50
From the text: as §2

[15] = system: HCV replicon with NS5A genotype 3a wild type; assay: microbe, parasite or virus in culture; type: cell-based; details: Hepatitis C virus, read-out: Average EC50
From the text: as §2

[16] = system: HCV replicon with NS5A genotype 6a T58N variant; assay: Transient chimeric replicon assay, genotype 6a T58N; type: cell-based
From the text: as §1

[17] = system: HCV replicon with NS5A from genotype 2a; assay: microbe, parasite or virus in culture; details: Hepatitis C virus, read-out: Mean EC50 ± Std. Dev.
[18] = system: HCV replicon with NS5A genotype 3a Y93H variant; assay: Transient chimeric replicon assay, genotype 3a Y93H; type: cell-based; details: Hepatitis C virus
From the text: as §1

[19] = system: HCV replicon with NS5A from genotype 3a; details: read-out: Mean EC50 ± Std. Dev.
[20] = system: HCV genotype 1b-Con1 stable subgenomic replicon; assay: microbe, parasite or virus in culture; details: Hepatitis C virus, read-out: Mean EC50 ± Std. Dev.
[21] = system: HCV replicon with NS5A from genotype 2a; details: read-out: Mean EC50 ± Std. Dev.
[22] = system: HCV replicon with NS5A genotype 5a L31F variant; assay: Transient chimeric replicon assay, genotype 5a L31F; type: cell-based
From the text: as §1

[23] = system: HCV replicon with NS5A from genotype 6a; details: read-out: Mean EC50 ± Std. Dev.

COC(=O)N[C@H](C(=O)N1CCC[C@H]1c1nc2cc([C@H]3CC[C@H](c4ccc5[nH]c([C@@H]6CCCN6C(=O)[C@@H](NC(=O)OC)C(C)C)nc5c4)N3c3cc(F)c(N4CCC(c5ccccc5)CC4)c(F)c3)ccc2[nH]1)C(C)C [Compound 1, methyl {(2S)-1-[(2S)-2-{5-[(2R,5R)-1-[3,5-difluoro-4-(4-phenylpiperidin-1-yl)phenyl]-5-{2-[(2S)-1-{(2S)-2-[(methoxycarbonyl)amino]-3-methylbutanoyl}pyrrolidin-2-yl]-1H-benzimidazol-5-yl}pyrrolidin-2-yl]-1H-benzimidazol-2-yl}pyrrolidin-1-yl]-3-methyl-1-oxobutan-2-yl}carbamate]
EC50 [1]: 4.6 pM
EC50 ([1]; Hepatitis C virus): < 5 pM
EC50 [2]: < 10 pM
EC50 [3]: < 10 pM
EC50 [4]: 1.8 pM
EC50 [5]: < 5 pM
EC50 [6]: 3 pM
EC50 ([6]; Hepatitis C virus): < 5 pM
EC50 [7]: 5.1 ± 1.8 pM
EC50 [8]: < 10 pM
EC50 [9]: 2.5 pM
EC50 ([9]; Hepatitis C virus): < 5 pM
EC50 [10]: 6.4 ± 3.1 pM
EC50 [11]: 3 pM
EC50 ([11]; Hepatitis C virus): < 5 pM
EC50 [12]: 1.1 pM
EC50 [13]: 2.4 pM
EC50 [14]: 3 pM
EC50 [15]: 2.9 pM
EC50 [16]: 3.2 pM
EC50 ([16]; Hepatitis C virus): < 5 pM
EC50 [17]: < 10 pM
EC50 [18]: 273 pM
EC50 [19]: 6.4 ± 2.8 pM
EC50 [20]: < 10 pM
EC50 [21]: 9 ± 4.6 pM
EC50 [22]: 3.3 pM
EC50 ([22]; Hepatitis C virus): < 5 pM
EC50 [23]: 8.7 ± 5.5 pM
